Patent US20120270251A1, “INHIBITION OF THE ACTIVITY OF KINASE AND SYNTHETASE ENZYMES” (CSIR, priority 2009, published 2012)
Read-outs that look alike come from different tables or passages of the source.

How the values were obtained:
Type in all cases: biochemical
AK1 [1] = target: T1, AK1 (Homo sapiens, UniProt P00568); assay: AK1 enzyme activity with ATP versus deuterated ATP
T1 sequence (P00568 1-194): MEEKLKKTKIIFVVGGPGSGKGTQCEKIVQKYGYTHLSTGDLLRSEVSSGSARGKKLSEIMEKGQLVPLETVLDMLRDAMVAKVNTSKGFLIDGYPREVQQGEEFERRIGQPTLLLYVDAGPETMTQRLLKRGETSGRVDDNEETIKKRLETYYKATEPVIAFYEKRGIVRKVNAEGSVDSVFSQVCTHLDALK
Procedure: The assay is carried out in the presence of ATP and AMP measuring the formation of ADP. […] A kinetic isotope effect is also obtained when comparing the activity of the enzyme when the reaction is carried out in the presence of AMP and deuterated AMP. A further KIE is obtained when both deuterated ATP and deuterated AMP are used in the reaction. […] The KIE is obtained by dividing the activity of the enzyme in the presence of the proteated species (vH) by the enzyme activity in the presence of the deuterated species (vD) and is vH/vD=0.5. […] The proposed basic reaction mechanisms by which all forms of kinase are regulated occurs via either the formation of an immonium species at N7, which in turn induces the formation of a carbene at C8 or via the delocalization of electrons away from the C8 rendering the C8 more acidic. An immonium species may be induced at N7 by (1) protonation via a coordinated HCO3^−, (2) carboxylation of the N7, or (3) the coordination of an amino acid side chain within the active site such as a arginine, glutamine, lysine or histidine. The different forms of regulation are then based on the mechanism by which the carbene formed at C8 is stabilized and the mechanism by which the C8-H is deprotonated or via the interaction of the protein coordinated amino acid side chains affecting the delocalization of electrons around the adenyl ring of the nucleotide.

[2] = test system: Saccharomyces cerevisiae hexokinase; assay: Hexokinase steady-state kinetics, ATP vs C8D-ATP
[3] = target: T2, Escherichia coli acetate kinase (Escherichia coli, UniProt P0A6A3); assay: Acetate kinase steady-state kinetics, ATP vs C8D-ATP
T2 construct: purchased Sigma A7437
From the text: Hexokinase from Saccharomyces cerevisiae Type F-300 (Sigma, H4502) and Acetate kinase from E. coli (Sigma, A7437) were purchased. The human adenylate kinase (AK1) gene in vector pLIG-SC1 was obtained from the Structural Genomics Consortium (code AK1A). The His-tagged AK1 was produced in Escherichia coli Origami (DE3) and purified using the Bio-Rad Profinia Purification System. […] The Mycobacterium tuberculosis shikimate kinase gene in pET15b (Novagen) was obtained from the group of Chris Abell, Cambridge University, UK. The his-tagged MtSK was produced in E. coli BL21 (DE3) and purified using the Bio-Rad Profinia Purification System. The pure protein was dialysed against 50 mM Tris (pH 7.5) and 1,000 mM NaCl. Adenylylated (GS12) and deadenylylated (GS0) glutamine synthetase were prepared as outlined below.
The assay was incubated at 30° C. for 30 minutes and stopped by the addition of 1 μl of 50% TCA. The formation of ADP was analysed by HPLC.
The results are reflected in FIGS. 19 to 25. […] The best-fit to the data was obtained for the specified kinetic model using the non-linear regression algorithms as outlined using the GraphPad Prism® 5 software. […] These response curves were then used to define the KIE by the conventional estimation of KIE from KIE=vH/vD. The KIED was also determined using the following function: […]

[4] = target: Escherichia coli deadenylylated glutamine synthetase (GS0) (Escherichia coli, UniProt P0A9C5); conditions: for Hill factor (h): allosteric sigmoidal model
[5] = target: B. stearothermophilus phosphofructokinase (Geobacillus stearothermophilus, UniProt P00512); conditions: for Hill factor (h): allosteric sigmoidal model
[6] = target: Escherichia coli adenylylated glutamine synthetase (GS12) (Escherichia coli, UniProt P0A9C5); conditions: for Hill factor (h): allosteric sigmoidal model
AK1 [7] = target: T1, AK1; assay: Effect of ATPS and C8-D ATPS on synthesis of ADP by AK1; conditions: 0.2-1.0 mM, 0.6 mM ATP, 0.6 mM AMP, pH 7.2
Procedure: Increasing concentrations of ATPS or C8-D ATPS were added; 0.2, 0.4, 0.6, 0.8, and 1.0 mM. Assays, in a final volume of 1 ml, were allowed to proceed for 45 mins at 37° C., before 6 μl 100% TCA was added to stop the reaction. […] The assay where no ATPS or C8-D ATPS was added produced 0.19 mM ADP.

[8] = tested model: Allosteric sigmoidal

Sequence of Escherichia coli adenylylated glutamine synthetase (GS12) (P0A9C5 2-469): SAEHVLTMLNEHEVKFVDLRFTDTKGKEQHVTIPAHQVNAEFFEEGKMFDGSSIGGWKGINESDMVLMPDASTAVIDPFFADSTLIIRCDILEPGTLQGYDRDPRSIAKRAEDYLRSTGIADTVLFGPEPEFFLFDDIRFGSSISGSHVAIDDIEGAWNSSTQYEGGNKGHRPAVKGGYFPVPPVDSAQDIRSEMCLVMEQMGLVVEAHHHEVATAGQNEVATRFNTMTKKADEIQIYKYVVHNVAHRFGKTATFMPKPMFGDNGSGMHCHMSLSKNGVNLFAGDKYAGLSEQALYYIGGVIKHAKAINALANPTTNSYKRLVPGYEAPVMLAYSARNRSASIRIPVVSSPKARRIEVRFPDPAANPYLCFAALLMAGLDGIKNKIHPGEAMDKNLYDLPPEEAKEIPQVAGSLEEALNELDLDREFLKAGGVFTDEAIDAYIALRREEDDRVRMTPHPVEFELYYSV
Sequence of Escherichia coli deadenylylated glutamine synthetase (GS0) (P0A9C5 2-469): as above
Sequence of B. stearothermophilus phosphofructokinase (P00512 whole entry): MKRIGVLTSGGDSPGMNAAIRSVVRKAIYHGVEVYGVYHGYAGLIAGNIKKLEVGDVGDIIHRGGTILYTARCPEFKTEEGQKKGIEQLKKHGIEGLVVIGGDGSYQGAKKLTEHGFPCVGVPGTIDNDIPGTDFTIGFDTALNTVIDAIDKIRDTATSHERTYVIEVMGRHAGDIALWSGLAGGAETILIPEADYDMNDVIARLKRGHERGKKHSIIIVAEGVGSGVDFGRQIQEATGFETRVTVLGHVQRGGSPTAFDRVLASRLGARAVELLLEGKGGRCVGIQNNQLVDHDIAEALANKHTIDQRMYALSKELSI
T2 sequence (P0A6A3 whole entry): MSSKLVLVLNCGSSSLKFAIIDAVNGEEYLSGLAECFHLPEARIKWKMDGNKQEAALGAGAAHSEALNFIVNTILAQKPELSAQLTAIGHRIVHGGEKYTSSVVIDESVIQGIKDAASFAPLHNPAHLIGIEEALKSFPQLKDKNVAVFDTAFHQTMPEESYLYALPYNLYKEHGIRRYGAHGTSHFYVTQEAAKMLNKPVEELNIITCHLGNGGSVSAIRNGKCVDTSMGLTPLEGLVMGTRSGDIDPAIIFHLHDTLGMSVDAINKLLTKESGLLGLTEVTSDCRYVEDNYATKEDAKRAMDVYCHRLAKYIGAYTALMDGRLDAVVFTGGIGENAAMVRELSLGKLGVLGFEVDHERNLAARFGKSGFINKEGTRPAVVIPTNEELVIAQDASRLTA

Row | SMILES | fit to kinetic model [2, 8] | fit to kinetic model ([2]; tested model: Michaelis-Menton) | fit to kinetic model [3, 8] | fit to kinetic model ([3]; tested model: Michaelis-Menton) | Hill factor (h) [4] | fit to kinetic model [4, 8] | fit to kinetic model ([4]; tested model: Michaelis-Menton) | Hill factor (h) [5] | Hill factor (h) [6] | fit to kinetic model [6, 8] | fit to kinetic model ([6]; tested model: Michaelis-Menton) | inhibition of AK1 (AK1 [7]) | other results
1 | Nc1ncnc2c1ncn2[C@@H]1O[C@H](COP(=O)(O)OP(=O)(O)OP(=O)(O)O)[C@@H](O)[C@H]1O [ATP, adenosine triphosphate, reference compound] | Allosteric sigmoidal | Fit ambiguous | Allosteric sigmoidal | Fit ambiguous | 3.10 | Allosteric sigmoidal | Fit ambiguous | 1.37 | 1.77 | Allosteric sigmoidal | Fit ambiguous |  | reduction in AK1 enzyme activity using ATP compared with ATP deuterated at position C8 (AK1 [1]; low ATP concentrations): 50%; Hill factor (h) ([2]; allosteric sigmoidal model): 1.75; Hill factor (h) ([3]; allosteric sigmoidal model): 2.08
2 | Nc1ncnc2c1ncn2[C@@H]1O[C@H](COP(=O)(O)OP(=O)(O)OP(O)(O)=S)[C@@H](O)[C@H]1O [ATPS, Adenosine 5′-[γ-thio]triphosphate, reference compound] |  |  |  |  |  |  |  |  |  |  |  | inhibit | 
3 | [2H]c1nc2c(N)ncnc2n1C1OC(COP(=O)(O)OP(=O)(O)OP(O)(O)=S)C(O)C1O (stereo not shown) [C8-D ATPS] |  |  |  |  |  |  |  |  |  |  |  | inhibit | inhibition of AK1 compared with ATPS (AK1 [7]): significantly more inhibition
4 | Nc1ncnc2c1ncn2[C@@H]1O[C@H](COP(=O)(O)OP(=O)(O)OP(=O)(O)O)[C@@H](O)[C@H]1O [C8D-ATP] | Fit ambiguous | Michaelis-Menton | Fit ambiguous | Michaelis-Menton | 4.08 | Allosteric sigmoidal | Fit ambiguous | 1.79 | 0.92 | Allosteric sigmoidal | Fit ambiguous |  | reduction in AK1 activity in the presence of deuterated ATP (AK1 [1]; high ATP concentrations): ≥ 50%; KIEvmax ([2]; KIE at maximum enzyme activity): 1; KIED ([2]; asymptote at Vmax): 1; KIED ([2]; low ATP concentrations): > 5; KIEvmax ([3]; KIE at maximum enzyme activity): 1; KIED ([3]; asymptote at Vmax): 1; KIED ([3]; low ATP concentrations): > 5; KIEvmax ([4]; KIE at maximum enzyme activity): 1; KIED ([4]; asymptote at Vmax): 1; KIED ([4]; low ATP concentrations): > 5; KIEvmax ([5]; KIE at maximum enzyme activity): 2; KIED ([5]; asymptote at Vmax): 0.5; KIED ([5]; low ATP concentrations): > 5; fit to kinetic model [5, 8]: Allosteric sigmoidal; fit to kinetic model ([5]; tested model: Michaelis-Menton): Fit ambiguous; KIEvmax ([6]; KIE at maximum enzyme activity): 2; KIED ([6]; asymptote at Vmax): 0.5; KIED ([6]; low ATP concentrations): > 5
